According to patent publication US20020137054A1, “AXOR35, a G-protein coupled receptor” (SmithKline Beecham Corporation & SmithKline Beecham plc, priority 1999, published 2002):
Structures can show the parent of a compound that is named as a salt.

What was measured:
AXOR35 [1] = target: T1, AXOR35 (Homo sapiens, UniProt Q9H3N8); details: histamine challenge of control cells transiently expressing AXOR35
Experimental: Prior to challenge with histamine, cells transiently expressing AXOR35 are treated with increasing concentrations of test compound. […] Antagonist activity is calculated as the concentration of test compound required to inhibit 50% of a maximum histamine response (IC50).

AXOR35 [2] = target: T1, AXOR35; details: calcium mobilization response, method analogous to Example 8

melting point | EC80 (AXOR35 [1]) | ligand for AXOR35 (AXOR35 [2]) | Compound
254 to 256 °C |  |  | NCC(Cc1ccc(Cl)cc1)c1c[nH]cn1 (stereo not shown) (as salt: hydrochloride)
 | 100 nM | ligands for AXOR35 | NCCc1c[nH]cn1 [histamine, 1H-imidazole-4-ethanamine]
264 to 266 °C |  |  | NCC(c1ccccc1)c1cnc[nH]1 (stereo not shown) (as salt: hydrochloride)
